Measurements as given in patent US12630523B2, “Isoquinoline derivatives for use as antiviral and antitumour agents” (priority 2021, dated 2026).

Key:
[1] = system: cell signaling molecules (4E-BP1, p70 S6 kinase, Akt, PTPN14, p53, PD-L1); assay: Western blot of cell signaling molecules in CaSki cells; conditions: CaSki; for Phosphorylation of 4E-BP1 on Ser65 and the p70S6 kinase on Thr389: 6 h, order 10 μM VSP035, Torin 1, Torin 2, rapamycin, 5 μM VSP035, CGP 57380; for phosphorylation of AKT on Ser473: 6 h treatment
[2] = system: SARS-CoV-2 isolate BetaCov/Belgium/GHB-03021/2020; assay: microbe, parasite or virus in culture; format: cell-based; conditions: 1.25 μM (non-toxic compound concentration), n4; for inhibition at 1.25 µM: Severe acute respiratory syndrome coronavirus 2
[3] = system: CaSki (ATCC CRM-CRL-1550); assay: Monolayer assay using Sulphorhodamine B (SRB) staining, CaSki; format: cell-based; conditions: Homo sapiens, Ca-Ski, read-out: EC50 mean [nM]
Experimental: Various cell culture cells grown as monolayers are harvested from exponential growing cultures after treatment with various OC compounds at different concentrations. For this depending on the cell line, 10.000 to 30.000 cells were plated in 96-well flat-bottom microtiter plates. After a 24 h recovery period to allow cells to resume exponential growth, supernatants are discarded and 100 μl of culture medium (eight control wells/plate) or culture medium with the test compound are added by a liquid handling robotic system (Microlab® Starlet, Hamilton) and treatment continued for 72 hrs. Compounds are applied at 9 concentrations and eight wells/concentration). At least three independent experiments are performed. For SRB staining, cells are fixed with SRB01 (Tab. 5) for 1 h at 4° C. (final concentration of TCA=10%) washed with a plate washer (Hydroflex, Tecan©) for five times with H2O; and stained with 100 μl of SRB02 at room temperature for 10 min following 4 washes in SRB03 and finally 100 μl of developer solution SRB04 for 5 minutes with shaking. Optical density is assessed using a plate-reader (Sunrise, Tecan©) at 540 nm.
Concentrations required for half maximal response of the compound for cell growth inhibition (EC50) is calculated by non-linear regression (log[conc. of inhibitor] versus response (% T/C)) using the analysis software GraphPad Prism®, Prism 5 for windows, version 5.01 (GraphPad Software Inc., CA).

[4] = system: CaSki cells; assay: Cell cycle analysis using Propidium-Iodide staining (flow cytometry); format: cell-based, human; conditions: 48 hour incubation; for A*/5 μM (apoptosis as measured from total SUB G1 content) / A*/10 μM (apoptosis as measured from total SUB G1 content): no treatment 15.0; for G2/5 μM / G1/5 μM / G2/10 μM / G1/10 μM: cell cycle distribution; for G2/5 μM / G2/10 μM: no treatment 15.6; for G1/5 μM / G1/10 μM: no treatment 53.3
Experimental: Propidium-Iodide (PI) DNA staining is performed to facilitate cell cycle analysis. For PI-DNA staining, fixed cells and eventually antibody-stained cells are resuspended in 450 μl of PBS (per 10^6 cells) and incubated with 100 μg/ml RNase (stock 1 mg/ml, in PBS) for 10 minutes at 37° C. Cells are then incubated with 5 μg/106 cells of PI (stock 1 mg/ml in PBS) for 10 minutes at room temperature. Samples are stored at 4° C. until CF analysis.
CaSki cells were incubated with various compounds and cell cycle distribution of the cells was assessed using Propidium-Iodide staining.
In order to analyze the cytostatic versus the cytotoxic effect of OC compounds, cell cycle profiles were analyzed in vitro after 48 hour incubations using Flow Cytometry as a read out. For this a cell cycle analysis from selected OC E7 degrader compounds was conducted in CaSki cells. Using 6 well plates, 1.5×10^5 cells were seeded for each well and grown over night at 37° C. 5% CO2. For analysis of the cell cycle behavior, cells were analyzed in the presence of propidium Iodide (PI^−) by flow cytometry (FC). Briefly, cells were detached by trypsin digestion, all supernatants were included in the analysis, and fixed with 70% ice cold ethanol and stored at 4° C. until FC analysis using PI^− staining (1 mg/ml). At least 7000 events were acquired for each sample.

[5] = biological target: T1, HPV16 E7 protein (Human papillomavirus type 16, UniProt P03129); format: cell-based; conditions: CaSki cells; adjusted degradation, CHX steady state set to 100% degradation
T1 construct: endogenous in cells; host or cells: CaSki cells (HPV16-positive cervical carcinoma)
T1 sequence (P03129 whole entry): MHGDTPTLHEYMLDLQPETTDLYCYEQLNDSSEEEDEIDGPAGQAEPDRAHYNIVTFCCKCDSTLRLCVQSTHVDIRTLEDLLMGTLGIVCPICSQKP
Experimental: For intracellular antibody labeling, 0.5×10^6 cells are washed once with 1 ml ice-cold PBS. Cells are centrifuged at 350×g for 5 minutes at 4° C. and then fixed in 1% paraformaldehyde (1 ml/10^6 cells) for 20 minutes at 4° C. Cells are washed with 1 ml ice-cold PBS and centrifuged at 350×g for 5 minutes at 4° C. To permeabilize cells, 100% ice-cold methanol (1 ml/10^6 cells) is added to the cells and incubated for 20 minutes at 4° C. followed by centrifugation at 350×g for 5 minutes at 4° C. Cells are washed with 1 ml ice-cold PBS, centrifuged at 350×g for 5 minutes at 4° C. and resuspended in 0.1% saponin+2% FBS in PBS (ice-cold). Cells are left for 20-30 minutes at room temperature to reduce the background signal and then centrifuged at 350×g for 5 minutes at 4° C. The primary antibody (mAb_HPV16E7-1 (VS13004); concentration 1 μg/μl) is diluted in 0.1% saponin+2% FBS (dilution 0.25 μg/50 μl of incubation buffer per 1×10^6 cells (5 ng/μl)). Cells are incubated with primary antibody for 30 minutes at room temperature, washed with 0.1% saponin+2% FBS and centrifuged at 350×g for 5 minutes at 4° C. The secondary antibody (FITC conjugated goat anti-mouse IgG1-IgM, BD, cat. #555988) is diluted in 0.1% saponin+2% FBS (dilution 1:50). Cells are incubated with secondary antibody for 30 minutes at room temperature, washed once with 0.1% saponin+2% FBS, once with PBS and centrifuged at 350×g for 5 minutes at 4° C.
Cells are resuspended in 700 μl PBS prior to CF analysis with a Beckman Coulter FC 500 MPL, (excitation laser 488 nm). Data analysis is done using the Beckman Coulter software packages MXP for acquisition and CXP for data analysis which includes MFI calculation. Detection of HPV-E7 protein expression is based on morphology back-gating of FL1 histogram (logarithmic scale) with gating for dot plot FS (Forward Scatter) log/SS (Sideward Scatter) log and gating for histograms SS log.
In order to define the level of E7 protein expression and to study the extent of E7 protein steady state level reduction in E7 expressing cells in the presence of various compounds, FC analysis is implemented using the intracellular antibody labeling procedure for monoclonal antibodies to HPV E7. E7 signal intensities are analyzed from the obtained FL1 histograms at logarithmic scale. The FL1 single histogram graph represents the variation in the mean fluorescence intensity (MFI) channel for cells treated with selected compounds compared to cells not incubated with primary antibodies but incubated with secondary, which allows to test for auto-fluorescence, and non-compound treated cells as controls. Non-primary antibody-stained cells are used to set the acquisition parameters to zero. Decrease of the mean fluorescence intensity channel corresponds to a decrease in the expression of HPV16 E7 protein. Degradation of E7 in cells is calculated as percent (%) reduction in MFI(x-Me) using the following formulas: % Drel=(T−C)/T*100; i) relative degradation: % Dad=(T−C)/(T−CHX)*100; ii) adjusted degradation: • Drel=relative degradation, • Dad=adjusted degradation assuming CHX % Drel=100; • T=MFI of non-treated cells; • C=MFI of compound treated cells; • CH=MFI of cycloheximide (CHX) treated cells;
For comparison within one experiment i) the % relative degradation (Drel) is sufficient, whereas for comparison between two or more experiments ii) the adjusted degradation (Dad) is used and CHX steady state is set to a 100% degradation parameter.
1×10^6 freshly seeded CaSki cells (ATCC CRL-7915), are grown in 10 cm diameter cell culture dishes in RPMI1640, 10% FCS medium at 37° C. 5% CO2 overnight and then incubated in the presence of 10 μM Cycloheximide (CHX) 10 μM OC246 or with vehicle alone for four hours at 37° C. 5% CO2. Following this E7 protein is assessed by cytofluorimetric analysis using intracellular HPV16 E7 antibody labeling. […]

[6] = system: human cervical carcinoma (CaSki) xenograft; assay: CaSki high risk HPV16 human cervical carcinoma xenograft model; format: in vivo, nude mice
Experimental: The aim of this study was to assess the in vivo efficacy of OC246 and OC974 on a human cervical carcinoma (CaSki) xenograft model in nude mice. OC246 and OC974 were administered oral once daily for four times with three days off, for three cycles at 2 mg/kg/dose. Cisplatin (CDDP) was used as a reference compound with three weekly intravenous (q7dx3) administrations of 6 mg/kg.

| Structure (SMILES) | Phosphorylation of 4E-BP1 on Ser65 and the p70S6 kinase on Thr389 [1] | phosphorylation of AKT on Ser473 [1] | % Inhibition [2] [%] | EC50 [3] [nM] | A*/5 μM (apoptosis as measured from total SUB G1 content) [4] [%] | A*/10 μM (apoptosis as measured from total SUB G1 content) [4] [%] | G2/5 μM [4] [%] | G1/5 μM [4] [%] | G2/10 μM [4] [%] | G1/10 μM [4] [%] | % Dad [5] [%] | inhibition at 1.25 µM [2] [%] | % TGI (Day 44): percentage tumor growth inhibition with respect to controls ([6]; OC246/OC974 os 2 mg/kg/day, 4 × week, 3 cycles, CDDP i.v. q7d × 3, 6 mg/kg) [%] | Δ% on Day 44 ([6]; OC246/OC974 os 2 mg/kg/day, CDDP i.v. 6 mg/kg, control 100) [%] | Tumor Volume Day 44 (mm^3 ± SD) ([6]; OC246/OC974 os daily 4 × week, 3 cycles, 2 mg/kg/day, CDDP i.v. q7d × 3, 6 mg/kg, control 1099 ± 503) [mm^3] | Δ% Body Weight ([6]; between first day of treatment (day 20) and Day 44, OC246/OC974 os 2 mg/kg/day, CDDP i.v. 6 mg/kg, control +4.9) [%] |
| --- | --- | --- | --- | --- | --- | --- | --- | --- | --- | --- | --- | --- | --- | --- | --- | --- |
| CCC(=O)N1CCN(c2ccc(-n3c(=O)ccc4cnc5ccc(-c6cnc7ccccc7c6)cc5c43)cc2C(F)(F)F)CC1 [Torin 1, reference compound] | inhibited or strongly reduced | inhibited | 7.00 |  |  |  |  |  |  |  |  |  |  |  |  |  |
| Cc1ccc(CN2C(=O)c3ccccc3[C@@H](C(=O)Nc3ccc(N4CCN(C)CC4)cc3)[C@@H]2c2ccc(C(F)(F)F)cc2)cc1 (relative stereo) [OC972] |  |  |  | 67700 | 12.8 | 13.5 | 16.9 | 53.2 | 15.9 | 48.4 | 32 | 5.37 |  |  |  |  |
| CN1CCN(c2cccc(NC(=O)[C@@H]3c4ccccc4C(=O)N(Cc4cccnc4)[C@H]3c3ccc(C(F)(F)F)cc3)c2)CC1 (relative stereo) [OC976] |  |  |  | 4720 | 11.4 | 12.8 | 9.3 | 58.8 | 16.9 | 53.2 | 54 | 27.1 |  |  |  |  |
| [NH2][Pt]([NH2])([Cl])[Cl] [CDDP, Cisplatin, reference compound] |  |  |  |  |  |  |  |  |  |  |  |  | 79.2 | 14 | 242 ± 182 | −10.2 |
| Nc1ccc(-c2ccc3ncc4ccc(=O)n(-c5cccc(C(F)(F)F)c5)c4c3c2)cn1 [Torin2, reference compound] | inhibited or strongly reduced | inhibited | 1.46 |  |  |  |  |  |  |  |  |  |  |  |  |  |
| CN1CCN(c2cccc(NC(=O)[C@@H]3c4ccccc4C(=O)N(Cc4ccncc4)[C@H]3c3ccc(C(F)(F)F)cc3)c2)CC1 (relative stereo) [OC975] |  |  |  | 4340 | 13.9 | 11.8 | 10.4 | 49.9 | 10.5 | 51.4 | 67 | 0.17 |  |  |  |  |
| Cc1ccc(CN2C(=O)c3ccccc3[C@@H](C(=O)Nc3cccc(N4CCN(C)CC4)c3)[C@@H]2c2ccc(C(F)(F)F)nc2)cc1 (relative stereo) [OC968] |  |  |  | 10600 | 11.9 | 11.6 | 18.0 | 52.7 | 19.7 | 48.0 | 37 | 2.09 |  |  |  |  |
| Cc1ccc(CN2C(=O)c3ccccc3[C@@H](C(=O)Nc3cccc(N4CCOCC4)c3)[C@@H]2c2ccc(C(F)(F)F)cc2)cc1 (relative stereo) [OC973] |  |  |  | 6720 | 11.1 | 13.0 | 17.6 | 52.1 | 11.5 | 52.6 | 20 | 0.95 |  |  |  |  |
